According to patent US11767322B2 (BRISTOL-MYERS SQUIBB COMPANY, priority 2020, dated 2023):
Like-named read-outs stand apart in the source and are kept apart here.

Legend:
[1] = target: T1, His-GST-TVMV-hRIPK1(1-324) (Homo sapiens, UniProt Q13546); assay: biochemical; format: binding; conditions: HTRF probe displacement, 1 h at rt; read-out: RIPK1 IC50
T1 construct: The coding region of human RIPK1(1-324) flanked by NdeI site at 5′ end; made in house; host or cells: Spodoptera frugiperda Sf9 insect cells (baculovirus, Bac-to-Bac)
T1 sequence (Q13546 1-324): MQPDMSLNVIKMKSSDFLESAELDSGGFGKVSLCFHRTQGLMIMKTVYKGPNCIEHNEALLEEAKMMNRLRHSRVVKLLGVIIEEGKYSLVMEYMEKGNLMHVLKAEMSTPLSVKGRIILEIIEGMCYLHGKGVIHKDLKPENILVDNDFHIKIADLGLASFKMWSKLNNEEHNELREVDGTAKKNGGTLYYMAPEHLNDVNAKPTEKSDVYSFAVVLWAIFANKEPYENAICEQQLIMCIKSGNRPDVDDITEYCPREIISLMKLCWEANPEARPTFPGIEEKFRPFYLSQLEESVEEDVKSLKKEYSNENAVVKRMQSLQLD

[2] = tested on: MLKL phosphorylation in HT29-L23 human colorectal adenocarcinoma cells; assay: MLKL phosphorylation high-content assay; format: cell-based; conditions: necroptosis induced with TNFα, SMAC mimetic and Z-VAD, 6 h, maximal inhibition defined by Nec1s
[3] = read-out: pMLKL IC50, HT29-L23 cells
[4] = Homo sapiens, read-out: pMLKL IC50, HT29-L23 cells

Row | Compound | IC50 [1] | IC50 [2, 3] | IC50 [2, 4]
1 | [2H]C([2H])(CC([2H])(O)c1ccc(Cl)cc1)NC(=O)c1c(Cl)ccc(-c2ccn3nc(N)nc3c2)c1F (single isomer, unassigned) [Example 76, 3-(2-amino-[1,2,4]triazolo[1,5-a]pyridin-7-yl)-6-chloro-N-(3-(4-chlorophenyl)-3-hydroxypropyl-1,1,3-d3)-2-fluorobenzamide] | 1.5 nM | 3.3 nM | 
2 | [2H]C([2H])(CC([2H])(O)c1ccc(Cl)cc1)NC(=O)c1c(Cl)ccc(-c2ccn3nc(N)nc3c2)c1F (single isomer, unassigned) [Example 77, 3-(2-amino-[1,2,4]triazolo[1,5-a]pyridin-7-yl)-6-chloro-N-(3-(4-chlorophenyl)-3-hydroxypropyl-1,1,3-d3)-2-fluorobenzamide] | 2.9 nM | 7.7 nM | 
3 | Nc1nc2cc(-c3ccc(Cl)c(C(=O)NCCC(O)c4ccc(F)cc4)c3F)ccn2n1 (single isomer, unassigned) [Example 79, 3-(2-amino-[1,2,4]triazolo[1,5-a]pyridin-7-yl)-6-chloro-2-fluoro-N-(3-(4-fluorophenyl)-3-hydroxypropyl)benzamide] | 4.8 nM |  | 19 nM
4 | Nc1nc2cc(-c3ccc(Cl)c(C(=O)NCCC(O)c4ccc(F)cc4)c3F)ccn2n1 (single isomer, unassigned) [Example 80, 3-(2-amino-[1,2,4]triazolo[1,5-a]pyridin-7-yl)-6-chloro-2-fluoro-N-(3-(4-fluorophenyl)-3-hydroxypropyl)benzamide] | 9 nM |  | 27 nM
5 | Nc1nc2cc(-c3ccc(Cl)c(C(=O)NCCC(O)c4ccc(C(F)(F)F)cc4)c3F)ccn2n1 (single isomer, unassigned) [Example 85, 3-(2-amino-[1,2,4]triazolo[1,5-a]pyridin-7-yl)-6-chloro-2-fluoro-N-(3-hydroxy-3-(4-(trifluoromethyl)phenyl)propyl)benzamide] | 2.1 nM | 0.5 nM | 
6 | Nc1nc2cc(-c3ccc(Cl)c(C(=O)NCCC(O)c4ccc(C(F)(F)F)cc4)c3F)ccn2n1 (single isomer, unassigned) [Example 86, 3-(2-amino-[1,2,4]triazolo[1,5-a]pyridin-7-yl)-6-chloro-2-fluoro-N-(3-hydroxy-3-(4-(trifluoromethyl)phenyl)propyl)benzamide] | 2.2 nM | 7.5 nM | 
7 | CC(O)(c1ccc(F)cc1)C(F)(F)CNC(=O)c1c(Cl)ccc(-c2ccn3nc(N)nc3c2)c1F (single isomer, unassigned) [Example 88, 3-(2-amino-[1,2,4]triazolo[1,5-a]pyridin-7-yl)-6-chloro-N-(2,2-difluoro-3-(4-fluorophenyl)-3-hydroxybutyl)-2-fluorobenzamide] | 3.6 nM |  | 2.4 nM
8 | Nc1nc2cc(-c3ccc(Cl)c(C(=O)NCC(F)(F)C(O)c4ccc(Cl)cc4F)c3F)ccn2n1 (single isomer, unassigned) [Example 162, 3-(2-amino-[1,2,4]triazolo[1,5-a]pyridin-7-yl)-6-chloro-N-(3-(4-chloro-2-fluorophenyl)-2,2-difluoro-3-hydroxypropyl)-2-fluorobenzamide] | 1.6 nM | 3.1 nM | 
9 | Nc1nc2cc(-c3ccc(Cl)c(C(=O)NCC(F)(F)C(O)c4ccc(Cl)cc4F)c3F)ccn2n1 (single isomer, unassigned) [Example 163, 3-(2-amino-[1,2,4]triazolo[1,5-a]pyridin-7-yl)-6-chloro-N-(3-(4-chloro-2-fluorophenyl)-2,2-difluoro-3-hydroxypropyl)-2-fluorobenzamide] | 0.3 nM | 1.3 nM | 
10 | Nc1nc2cc(-c3ccc(Cl)c(C(=O)NCC(F)(F)C(O)c4cccc(F)c4F)c3F)ccn2n1 (single isomer, unassigned) [Example 166, 3-(2-amino-[1,2,4]triazolo[1,5-a]pyridin-7-yl)-6-chloro-N-(3-(2,3-difluorophenyl)-2,2-difluoro-3-hydroxypropyl)-2-fluorobenzamide] | 2.1 nM |  | 5.1 nM
